Reference: patent US20230066156A1, “6-SUBSTITUTED, 22-CYANO HYODEOXYCHOLANIC ANALOGUES AND USES THEREOF” (PRECISION BIO-THERAPEUTICS S.R.L., priority 2019, published 2023)

How the values were obtained:
FXR = molecular target: T1, FXR (Homo sapiens, UniProt Q96RI1); test: FXR mediated transactivation, IR1 (hsp27)-luciferase reporter in transfected HepG2 cells; assay type: cell-based; details: compound at 10 μM, HepG2, vs maximal transactivation by CDCA 10 μM, triplicate
T1 construct: expressed in transfected cells; host or cells: HepG2
T1 sequence (Q96RI1 1-486): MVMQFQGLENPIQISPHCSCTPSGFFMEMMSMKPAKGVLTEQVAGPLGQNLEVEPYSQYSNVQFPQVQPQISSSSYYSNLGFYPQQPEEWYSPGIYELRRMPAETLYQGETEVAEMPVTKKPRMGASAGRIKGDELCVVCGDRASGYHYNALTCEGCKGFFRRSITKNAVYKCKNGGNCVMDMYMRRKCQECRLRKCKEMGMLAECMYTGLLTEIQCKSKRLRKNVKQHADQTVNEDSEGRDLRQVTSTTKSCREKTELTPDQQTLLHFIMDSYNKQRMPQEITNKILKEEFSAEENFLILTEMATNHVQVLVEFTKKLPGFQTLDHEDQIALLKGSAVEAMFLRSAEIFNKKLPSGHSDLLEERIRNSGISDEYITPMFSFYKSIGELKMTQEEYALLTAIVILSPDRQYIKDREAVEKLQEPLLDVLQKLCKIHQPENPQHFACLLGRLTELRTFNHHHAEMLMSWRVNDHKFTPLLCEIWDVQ
T1 sequence (P19793 1-462 partner): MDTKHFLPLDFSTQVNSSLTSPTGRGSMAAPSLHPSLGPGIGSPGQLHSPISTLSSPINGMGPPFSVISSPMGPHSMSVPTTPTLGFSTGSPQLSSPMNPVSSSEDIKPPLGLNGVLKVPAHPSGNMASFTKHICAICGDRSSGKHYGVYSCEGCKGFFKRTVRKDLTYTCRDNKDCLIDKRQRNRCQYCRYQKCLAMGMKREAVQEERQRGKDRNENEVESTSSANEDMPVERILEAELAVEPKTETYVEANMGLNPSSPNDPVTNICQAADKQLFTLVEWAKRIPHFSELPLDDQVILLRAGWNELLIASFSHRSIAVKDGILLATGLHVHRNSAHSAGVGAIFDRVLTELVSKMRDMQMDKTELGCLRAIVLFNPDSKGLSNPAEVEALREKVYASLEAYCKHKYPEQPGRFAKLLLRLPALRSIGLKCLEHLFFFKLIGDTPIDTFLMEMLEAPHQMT
Method: (§1) Selected compounds were tested in vitro on FXR and TGR5/GPBAR1 receptors (Table 1) using a whole cell model transfected with a reporter genes. The activity was evaluated in comparison with chenodeoxycholic acid (CDCA) and TLCA.
(§2) CDCA is a primary bile acid that functions as an endogenous ligand for FXR, while TLCA is a physiological ligand for TGR5/GPBAR1. In this assay, HepG2 cells (a liver-derived cell line) were cultured at 37° C. in minimum essential medium with Earl's salts containing 10% fetal bovine serum (FBS), 1% L-glutamine, and 1% penicillin/streptomycin. HEK-293T cells were cultured at 37° C. in D-MEM containing 10% fetal bovine serum (FBS), 1% L-glutamine, and 1% penicillin/streptomycin. The transfection experiments were performed using Fugene HD according to manufactured specifications. Cells were plated in a 24-well plate at 5×10^4 cells/well. For FXR mediated transactivation, HepG2 cells were transfected with 100 ng of pSG5-FXR, 100 ng of pSG5-RXR, 100 ng of pGL4.70 a vector encoding the human Renilla gene and 250 ng of the reporter vector p(hsp27)-TK-LUC containing the FXR response element IR1 cloned from the promoter of heat shock protein 27 (hsp27).
(§3) The data on the activity of certain compounds of the invention on TGR5/GPBAR1 are described in the following table 1. In this table, activities for compounds of the invention on GPBAR1 was compared to those of the reference compound TLCA. For % of activity, each compound was tested at the concentration of 10 microM and transactivation activity of TLCA on CRE (i.e. TGR5/GPBAR1) was considered equal to 100%. For selectivity toward FXR, activity was assessed in HepG2 cells transfected with an FXR responsive element (IR1) cloned upstream to the luciferase gene. For calculation of efficacy data, maximal transactivation of IR1 caused by each compound (10 μM) was compared to maximal transactivation caused by CDCA (10 μM). GPBAR1/FXR selectivity calculated as ratio between % of activity toward GPBAR1 and % of activity toward FXR. Each experiment was conducted in triplicate.

human GPBAR1 = molecular target: T2, human GPBAR1 (Homo sapiens, UniProt Q8TDU6); test: GPBAR1 mediated transactivation, CRE-luciferase reporter in transfected HEK-293T cells; assay type: cell-based; details: for EC50: HEK-293T CRE-luciferase transactivation; for GPBAR1 (% of activity in comparison to 10 μM TLCA): compound at 10 microM, HEK-293T, TLCA = 100%, triplicate; for GPBAR1/FXR selectivity: ratio between % of activity toward GPBAR1 and % of activity toward FXR
T2 construct: expressed in transfected cells; host or cells: HEK-293T
T2 sequence (Q8TDU6 1-330): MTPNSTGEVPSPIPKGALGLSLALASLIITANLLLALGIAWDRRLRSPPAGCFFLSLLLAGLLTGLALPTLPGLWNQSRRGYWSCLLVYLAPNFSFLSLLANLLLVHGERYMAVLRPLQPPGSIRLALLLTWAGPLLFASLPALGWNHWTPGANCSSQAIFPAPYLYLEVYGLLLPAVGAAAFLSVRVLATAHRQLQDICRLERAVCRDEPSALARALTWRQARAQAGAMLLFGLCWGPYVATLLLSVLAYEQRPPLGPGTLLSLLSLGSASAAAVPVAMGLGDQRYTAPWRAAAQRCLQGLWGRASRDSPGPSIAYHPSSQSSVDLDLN
Method: as §1, §2
For GPBAR1 mediated transactivation, HEK-293T cells were transfected with 200 ng of pGL4.29, a reporter vector containing a cAMP response element (CRE) that drives the transcription of the luciferase reporter gene luc2P, with 100 ng of pCMVSPORT6-human GPBAR1, and with 100 ng of pGL4.70 a vector encoding the human Renilla gene. In control experiments HEK-293T cells were transfected only with vectors pGL4.29 and pGL4.70 to exclude any possibility that compounds could activate the CRE in a GPBAR1 independent manner. At 24 h post-transfection, cells were stimulated for 18 h with 10 μM TLCA as a control agent or putative GPBAR1 agonists as the same concentration. After treatments, cells were lysed in 100 μL of lysis buffer (25 mM Tris-phosphate, pH 7.8; 2 mM DTT; 10% glycerol; 1% Triton X-100), and 20 μL of cellular lysate was assayed for luciferase activity using the luciferase assay system. Luminescence was measured using Glomax 20/20 luminometer. Luciferase activities were normalized against Renilla activities. Antagonism against FXR of GPBAR1/TGR5 was measured as percent of activity in transactivation assay suing activity of TLCA as example of agonism.
as §3

Q: For `CC[C@@]1(O)C[C@H]2[C@@H]3CC[C@H]([C@H](C)CC#N)[C@@]3(C)CC[C@@H]2[C@@]2(C)CC[C@@H](O)C[C@@H]12` [PBT110A, 3α,6β-dihydroxy-6α-ethyl-24-nor-5β-cholan-23-nitrile], which “FXR (% of activity in comparison to 10 μM CDCA)” value (FXR) is on record?
A: 6.6 ± 0.065%

Q: What about the EC50 (human GPBAR1) of the same compound?
A: 660 nM

Q: And the “GPBAR1 (% of activity in comparison to 10 μM TLCA)” value (human GPBAR1)?
A: 65.9 ± 1.69%

Q: And the GPBAR1/FXR selectivity (human GPBAR1)?
A: 9.9

Q: Which “FXR (% of activity in comparison to 10 μM CDCA)” value (FXR) does the source give for `C=CCCC[C@]1(O)C[C@H]2[C@@H]3CC[C@H]([C@H](C)CC#N)[C@@]3(C)CC[C@@H]2[C@@]2(C)CC[C@@H](O)C[C@@H]12` [PBT114, 3α, 6α-dihydroxy-6β-(4-Pentenyl)-24-Nor-5β-Cholane-23-Nitrile] here?
A: 1.6 ± 0.05%

Q: And the EC50 (human GPBAR1)?
A: 780 nM

Q: What about the “GPBAR1 (% of activity in comparison to 10 μM TLCA)” value (human GPBAR1) of the same compound?
A: 90.1 ± 1.35%

Q: What about the GPBAR1/FXR selectivity (human GPBAR1) of the same compound?
A: 56.31

Q: For `C=C[C@]1(O)C[C@@H]2[C@H](CC[C@]3(C)[C@@H]([C@H](C)CC#N)CC[C@@H]23)[C@@]2(C)CC[C@@H](O)C[C@H]21` [PBT113, 3α, 6α-dihydroxy-6β-vinyl-24-nor-5β-cholane-23-nitrile], which “FXR (% of activity in comparison to 10 μM CDCA)” value (FXR) is on record?
A: 2.2 ± 0.5%

Q: What about the EC50 (human GPBAR1) of the same compound?
A: 2260 nM

Q: And the “GPBAR1 (% of activity in comparison to 10 μM TLCA)” value (human GPBAR1)?
A: 62.5 ± 2.18%

Q: And the GPBAR1/FXR selectivity (human GPBAR1)?
A: 28.4

Q: Which “FXR (% of activity in comparison to 10 μM CDCA)” value (FXR) does the source give for `C[C@H](CC#N)[C@H]1CC[C@H]2[C@@H]3C[C@](O)(Cc4ccccc4)[C@@H]4C[C@H](O)CC[C@]4(C)[C@H]3CC[C@]12C` [PBT117, 3α,6β-dihydroxy-6α-benzyl-24-nor-5β-cholane-23-nitrile] here?
A: 4.4 ± 0.49%

Q: What about the EC50 (human GPBAR1) of the same compound?
A: 9330 nM

Q: And the “GPBAR1 (% of activity in comparison to 10 μM TLCA)” value (human GPBAR1)?
A: 8.3 ± 0.015%

Q: And the GPBAR1/FXR selectivity (human GPBAR1)?
A: 1.88

Q: `C[C@H](CC#N)[C@H]1CC[C@H]2[C@@H]3C[C@](C)(O)[C@@H]4C[C@H](O)CC[C@]4(C)[C@H]3CC[C@]12C` [PBT109B, 3α,6α-dihydroxy-6β-methyl-24-nor-5β-cholan-23-nitrile] was tested. Which “FXR (% of activity in comparison to 10 μM CDCA)” value (FXR) did it give?
A: 6.4 ± 0.23%

Q: And the EC50 (human GPBAR1)?
A: 6900 nM

Q: What about the “GPBAR1 (% of activity in comparison to 10 μM TLCA)” value (human GPBAR1) of the same compound?
A: 95.4 ± 0.24%

Q: What about the GPBAR1/FXR selectivity (human GPBAR1) of the same compound?
A: 14.9

Q: Which “FXR (% of activity in comparison to 10 μM CDCA)” value (FXR) does the source give for `C[C@H](CC#N)[C@H]1CC[C@H]2[C@@H]3C[C@@](C)(O)[C@@H]4C[C@H](O)CC[C@]4(C)[C@H]3CC[C@]12C` [PBT109A, 3α, 6β-dihydroxy-6α-methyl-24-nor-5β-cholan-23-nitrile] here?
A: 5.5 ± 0.7%

Q: What about the EC50 (human GPBAR1) of the same compound?
A: 570 nM

Q: What about the “GPBAR1 (% of activity in comparison to 10 μM TLCA)” value (human GPBAR1) of the same compound?
A: 83.4 ± 2.4%

Q: And the GPBAR1/FXR selectivity (human GPBAR1)?
A: 15.1

Q: Which results are given for `CC(C)[C@]1(O)C[C@@H]2[C@H](CC[C@]3(C)[C@@H]([C@H](C)CC#N)CC[C@@H]23)[C@@]2(C)CC[C@@H](O)C[C@H]21` [PBT112, 3α, 6α-dihydroxy-6β-isopropyl-24-nor-5β-cholane-23-nitrile]?
A: FXR (% of activity in comparison to 10 μM CDCA) (FXR): 4.3 ± 0.31%; EC50 (human GPBAR1): 2780 nM; GPBAR1 (% of activity in comparison to 10 μM TLCA) (human GPBAR1): 22.2 ± 0.13%; GPBAR1/FXR selectivity (human GPBAR1): 5.16

Q: Which results are given for `CCC[C@]1(O)C[C@H]2[C@@H]3CC[C@H]([C@H](C)CC#N)[C@@]3(C)CC[C@@H]2[C@@]2(C)CC[C@@H](O)C[C@@H]12` [PBT111, 3α,6α-dihydroxy-6β-propyl-24-nor-5β-cholan-23-nitrile]?
A: FXR (% of activity in comparison to 10 μM CDCA) (FXR): 3.1 ± 0.29%; EC50 (human GPBAR1): 1200 nM; GPBAR1 (% of activity in comparison to 10 μM TLCA) (human GPBAR1): 67.1 ± 2.1%; GPBAR1/FXR selectivity (human GPBAR1): 21.6

Q: How did the “FXR (% of activity in comparison to 10 μM CDCA)” value (FXR) turn out when `C[C@H](CC#N)[C@H]1CC[C@H]2[C@@H]3C[C@@](O)(c4ccccc4)[C@@H]4C[C@H](O)CC[C@]4(C)[C@H]3CC[C@]12C` [PBT115, 3α, 6α-dihydroxy-6β-phenyl-24-nor-5β-cholane-23-nitrile] was run?
A: 18.2 ± 1.08%

Q: What about the EC50 (human GPBAR1) of the same compound?
A: 4580 nM

Q: And the “GPBAR1 (% of activity in comparison to 10 μM TLCA)” value (human GPBAR1)?
A: 38.8 ± 1.79%

Q: What about the GPBAR1/FXR selectivity (human GPBAR1) of the same compound?
A: 2.13
